These results are taken from patent US6413935B1, “Induction of immune response against desired determinants” (priority 1993, dated 2002).

The subject of assay [1] is DR5.
Assay [2] concerns the target DR7. The note with it: for Loss of DR7 binding reactivity: relative to parent 760.57.
Assay [3] deals with T1, DRw53 (Homo sapiens, UniProt P01903+P13762).
Assay [4] deals with T2, DR3 (Homo sapiens, UniProt P01903+P01911, A100K/A102G/A103R/A169T/F55Y/I96L/K41T/L162R/M171V/P40S/Q125H/Q178H/Q39Y/R42S/S66N/T106N/T262R/W38E/Y61H).
Assay [5] relates to DQ3.1.
Assay [6] addresses DR1 (Homo sapiens, UniProt P01903+P01911, A100R/D57E/F55L/F60I/F76Y/I96L/L162R/M171V/P40L/Q125E/R42F/V115G/Y59C). The note with it: relative to parent 760.57.
Assay [7] concerns the target T3, DR4w4 (Homo sapiens, UniProt P01903+P01911, A100K/A169T/F76Y/I96L/K127E/L162R/M171V/N62H/P40V/Q125Y/R42H/S133A/S149N/S66Y/V115G/V209L/W38E). The note with it: relative to parent 760.57.
Assay [8] concerns human PBMC T cell lines. The format is cell-based.
Assay [9] has as its target T2, DR3. The experiment in a line: biochemical.
The target in assay [10] is T3, DR4w4. The experiment in a line: biochemical. The note with it: PADRE Class II Binding Affinities DR4w4.
Assay [11] addresses T1, DRw53. Put plainly: biochemical.
Assay [12] has as its target T4, DR2w2a (Homo sapiens, UniProt P01903+Q30154). Put plainly: biochemical.
The subject of assay [13] is IE^k. The format is binding, mouse. Particulars: read-out: Capacity to bind purified IE^k, IC50.
The subject of assay [14] is C57BL/6J (H-2^b+) mice. The note with it: mouse, in vivo.
Assay [15] has as its target T4, DR2w2a. The note with it: read-out: Binding capacity DR2w2a, IC50.
Where [16] appears, read: read-out: PADRE Class II Binding Affinities DR5, Table VIII A.
Where [17] appears, read: read-out: PADRE Class II Binding Affinities DR7, Table VIII A.
The mark [18] stands for this setting: read-out: PADRE Class II Binding Affinities, Table VIII A.
Where [19] appears, read: read-out: Binding capacity DR5, IC50.

Where two headings read alike, the source gives them in different places. Non-standard residues stand in square brackets, D forms with d. Residues, ends and D or L forms follow the SMILES beside them. No end group written: not given here. Cha = N[C@@H](CC1CCCCC1)C(=O)O

T1 sequence (P01903 26-254): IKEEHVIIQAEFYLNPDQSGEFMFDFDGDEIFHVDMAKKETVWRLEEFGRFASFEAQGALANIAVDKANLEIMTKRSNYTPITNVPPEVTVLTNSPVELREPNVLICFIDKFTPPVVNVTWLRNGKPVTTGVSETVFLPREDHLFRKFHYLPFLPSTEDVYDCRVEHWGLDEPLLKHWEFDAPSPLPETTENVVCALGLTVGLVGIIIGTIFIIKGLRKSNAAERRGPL
T1 sequence (P13762 30-266): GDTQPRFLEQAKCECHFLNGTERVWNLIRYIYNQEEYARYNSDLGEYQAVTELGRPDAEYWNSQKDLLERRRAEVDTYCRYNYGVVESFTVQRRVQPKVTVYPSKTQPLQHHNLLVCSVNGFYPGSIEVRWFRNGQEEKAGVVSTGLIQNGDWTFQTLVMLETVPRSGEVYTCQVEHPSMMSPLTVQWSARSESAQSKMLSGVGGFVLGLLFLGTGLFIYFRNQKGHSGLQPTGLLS
T4 sequence (P01903 26-254): as the sequence (P01903 26-254) above
T4 sequence (Q30154 30-266): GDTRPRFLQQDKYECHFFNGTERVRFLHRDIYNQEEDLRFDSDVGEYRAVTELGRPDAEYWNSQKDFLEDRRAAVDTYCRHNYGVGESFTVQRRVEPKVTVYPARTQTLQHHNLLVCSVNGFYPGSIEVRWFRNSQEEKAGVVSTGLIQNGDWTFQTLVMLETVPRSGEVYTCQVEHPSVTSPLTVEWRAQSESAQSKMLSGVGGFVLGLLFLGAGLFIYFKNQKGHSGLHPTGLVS

Consider `CC(C)C[C@H](NC(=O)[C@@H](NC(=O)[C@H](C)NC(=O)[C@H](CCC(=O)O)NC(=O)[C@H](C)NC(=O)[C@H](C)NC(=O)[C@H](CC1CCCCC1)NC(=O)[C@H](C)NC(=O)[C@@H](C)N)[C@@H](C)O)C(=O)N[C@@H](CCCCN)C(=O)N[C@@H](C)C(=O)N[C@@H](C)C(=O)N[C@H](C)C(N)=O` [Peptide 906.19], for which the IC50 came out at 6.5 nM in assay [1] (read-out: PADRE Class II Binding Affinities DR5) and 250000 nM in [2] (read-out: PADRE Class II Binding Affinities DR7). Moreover, the “PADRE Class II Binding Affinities DR7” value in [2] is recorded as “DR7 reactivity was lost”. In addition, the “Increase in DR53 reactivity” value in [3] amounted to 20 fold.
Take `CC(C)C[C@H](NC(=O)[C@@H](NC(=O)[C@H](C)NC(=O)[C@H](CCC(N)=O)NC(=O)[C@H](C)NC(=O)[C@H](C)NC(=O)[C@H](CC1CCCCC1)NC(=O)[C@H](C)NC(=O)[C@@H](C)N)[C@@H](C)O)C(=O)N[C@@H](CCCCN)C(=O)N[C@@H](C)C(=O)N[C@@H](C)C(=O)N[C@H](C)C(N)=O` [Peptide 906.20] (H-[dA]A[Cha]AAQATLKAA[dA]-NH2; N-terminus and C-terminus assumed): the “PADRE Class II Binding Affinities DR3” value in assay [4] (Table VIII A) is recorded as “loss of DR3 binding”. For the same compound, the results for the IC50 in assay [1] (setting [16]), in [2] (setting [17]) and in assay [5] (setting [18]) were 4.1 nM, 2500 nM and 652 nM, respectively. Also, the “Loss of DR7 binding reactivity” value in [2] amounted to 30 fold.
`C[C@H](NC(=O)[C@H](C)NC(=O)[C@H](C)NC(=O)[C@H](CC1CCCCC1)NC(=O)[C@H](C)NC(=O)[C@@H](C)N)C(=O)N[C@@H](C)C(=O)N[C@H](C(=O)N[C@@H](CCC(=O)O)C(=O)N[C@@H](CCCCN)C(=O)N[C@@H](C)C(=O)N[C@@H](C)C(=O)N[C@H](C)C(N)=O)[C@@H](C)O` [Peptide 906.30] (H-[dA]A[Cha]AAAATEKAA[dA]-NH2; N-terminus and C-terminus assumed): in assay [6], the “Loss of DR1 binding reactivity” value amounted to 8 fold. Moreover, the “Loss of DR4w4 binding reactivity” value in assay [7] was 7 fold. For the same compound, the IC50 in assay [1] (setting [16]) came out at 51.5 nM; in assay [2] (setting [17]) it was 758 nM; in assay [5] (setting [18]), 148 nM. Further, the “Loss of DR5 binding reactivity” value in [1] (relative to parent 760.57) came out at 10 fold. Further, in assay [2], the “Loss of DR7 binding reactivity” value was found to be 10 fold. The “Increase in DQ3.1 binding reactivity” value in assay [5] (relative to parent 760.57) was “no reactivity was gained”.
In the case of `CC(C)C[C@H](NC(=O)[C@@H](NC(=O)[C@H](C)NC(=O)[C@H](C)NC(=O)[C@H](C)NC(=O)[C@H](C)NC(=O)[C@H](CC1CCCCC1)NC(=O)[C@H](C)NC(=O)[C@@H](C)N)[C@@H](C)O)C(=O)N[C@@H](CCCCN)C(=O)N[C@@H](C)C(=O)N[C@@H](Cc1ccccc1)C(=O)N[C@H](C)C(N)=O` [Peptide 906.50] (H-[dA]A[Cha]AAAATLKAF[dA]-NH2; N-terminus and C-terminus assumed), in [4] (relative to parent 760.57), the “Increase in DR3 reactivity” value is 8 fold. Also, the IC50 in [1] (setting [16]) was 9.5 nM; in assay [2] (setting [17]), 73.5 nM; in [5] (setting [18]), 20 nM. Also, in assay [3] (relative to parent 760.57), the “Increase in DR53 reactivity” value stood at 40 fold.
For `CC(C)C[C@H](NC(=O)[C@@H](NC(=O)[C@H](Cc1c[nH]cn1)NC(=O)[C@H](C)NC(=O)[C@H](C)NC(=O)[C@@H](NC(=O)[C@H](CC1CCCCC1)NC(=O)[C@H](CCCCN)NC(=O)[C@@H](C)N)C(C)C)[C@@H](C)O)C(=O)N[C@@H](CCCCN)C(=O)N[C@@H](C)C(=O)N[C@@H](C)C(=O)N[C@H](C)C(N)=O` [Peptide 955.15], in [8], the “Donors with significant (>10,000 cpm) T cell response / donors tested, second stimulation” value is on record as 2/15. Further, the “Donors with significant (>10,000 cpm) T cell response / donors tested, third stimulation” value in assay [8] is 4/5. Moreover, the IC50 came to 2500 nM in assay [9] (PADRE Class II Binding Affinities DR3, Table IX); 3.2 nM in assay [10]; 50 nM in assay [11]; 5.4 nM in assay [12] (PADRE Class II Binding Affinities DR2w282, Table IX).
Regarding `CC(C)C[C@H](NC(=O)[C@@H](NC(=O)[C@H](Cc1c[nH]c2ccccc12)NC(=O)[C@H](C)NC(=O)[C@H](C)NC(=O)[C@@H](NC(=O)[C@H](CC1CCCCC1)NC(=O)[C@H](CCCCN)NC(=O)[C@@H](C)N)C(C)C)[C@@H](C)O)C(=O)N[C@@H](CCCCN)C(=O)N[C@@H](C)C(=O)N[C@@H](C)C(=O)N[C@H](C)C(N)=O` [Peptide 965.10], the IC50 in [13] (Table III) amounted to 326 nM. In assay [8], the “Donors with significant (>10,000 cpm) T cell response / donors tested, second stimulation” value is 9/12 and all 5 individuals; the “Donors with significant (>10,000 cpm) T cell response / donors tested, third stimulation” value was 11 of 12 and all 5 individuals. The same compound displayed an Effective immunizing dose in [14] of 0.05 μg/mouse.
In the case of `CC(C)C[C@H](NC(=O)[C@@H](NC(=O)[C@H](Cc1c[nH]c2ccccc12)NC(=O)[C@H](C)NC(=O)[C@H](C)NC(=O)[C@@H](NC(=O)[C@H](CC1CCCCC1)NC(=O)[C@H](CCCCN)NC(=O)[C@H](C)N)C(C)C)[C@@H](C)O)C(=O)N[C@@H](CCCCN)C(=O)N[C@@H](C)C(=O)N[C@@H](C)C(=O)N[C@@H](C)C(N)=O` [Peptide 965.17], the “Donors with significant (>10,000 cpm) T cell response / donors tested, second stimulation” value in assay [8] is recorded as 2/5. Moreover, the “Donors with significant (>10,000 cpm) T cell response / donors tested, third stimulation” value in assay [8] is 4/5. The IC50 in [9] (PADRE Class II Binding Affinities DR3) was 3210 nM; in assay [11] it was 107 nM; in [12] (PADRE Class II Binding Affinities DR2w282), 5.8 nM.
Turning to “YSGPLKAEIAQRLEDV [MT (Y)17-31, reference compound]”, the IC50 in assay [1] (setting [19]) was greater than 10000 nM; in assay [2] (read-out: Binding capacity DR7, IC50), 208 nM; in [15], 350 nM.
As to aKFVAAWTLKAAa [Peptide 1024.03], the IC50 in assay [13] was determined as 3500 nM; in assay [1] (setting [19]) it was 18 nM; in [5] (read-out: Capacity to bind purified DQ3.1, IC50), 23 nM. The Effective immunizing dose in assay [14] amounted to 0.05 μg/mouse.
